Measurements published in PMC8881610 (Nature Communications, 2022).
Where a chain is given by its changes, count along the chain named.

Columns and labels:
GLP-1R [1] = biological target: GLP-1R (Homo sapiens, UniProt P43220, Y148A); assay: Whole-cell binding assay, competition with 125I-GLP-1(7-36)NH2; design: Flag; expressed in transfected cells; conditions: GLP-1R Y148A, CHO-K1
Experimental: (§1) Human embryonic kidney 293 cells containing SV40 large T-antigen (HEK293T) were cultured in DMEM (Gibco) supplemented with 10% (v/v) fetal bovine serum (FBS, Gibco), 1 mM sodium pyruvate (Gibco) and 100 units/mL penicillin and 100 μg/mL streptomycin at 37 °C in 5% CO2. Chinese hamster ovary (CHO-K1) cells were cultured in F-12 (Gibco) containing 10% FBS, 100 units/mL penicillin and 100 μg/mL streptomycin at 37 °C in 5% CO2. For cAMP and receptor expression assays, HEK293T cells were seeded into 6-well cell culture plates at a density of 7 × 10^5 cells per well. After overnight incubation, cells were transfected with GIPR, GLP-1R or GCGR construct using Lipofectamine 2000 or Lipofectamine 3000 transfection reagent (Invitrogen). For whole-cell binding assay, CHO-K1 cells were seeded into 96-well fibronectin-treated cell culture plates at a density of 3 × 10^4 cells per well. After overnight incubation, cells were transfected with GIPR, GLP-1R or GCGR construct using Lipofectamine 2000 transfection reagent (Invitrogen). Following 24 h culturing, the transfected cells were ready for use.
(§2) For GLP-1R and GCGR, CHO-K1 cells (30,000 cells/well) were seeded into Isoplate-96 plates and incubated for 24 h at 37 °C in 5% CO2. The WT or mutant constructs were transiently transfected using Lipofectamine 2000 transfection reagent as previous described. They were then washed twice using F-12 with 0.1% BSA or 0.1% casein, 33 mM HEPES, and incubated for 2 h at 37 °C. […] Cells were washed three times with ice-cold PBS and lysed in PBS with 1% Triton X-100, 20 mM Tris-HCl. After addition of scintillation cocktail (PerkinElmer), radioactivity (CPM) was counted on a MicroBeta^2 microplate counter (PerkinElmer). Data were normalized to the WT response and analyzed using three-parameter logistic equation.

GLP-1R [2] = biological target: GLP-1R (Homo sapiens, UniProt P43220, W214A); assay: as above; design: Flag; expressed in transfected cells; conditions: GLP-1R W214A, CHO-K1
Chain of GLP-1R (Homo sapiens, UniProt P43220, W214A) (P43220 24-463 W214A): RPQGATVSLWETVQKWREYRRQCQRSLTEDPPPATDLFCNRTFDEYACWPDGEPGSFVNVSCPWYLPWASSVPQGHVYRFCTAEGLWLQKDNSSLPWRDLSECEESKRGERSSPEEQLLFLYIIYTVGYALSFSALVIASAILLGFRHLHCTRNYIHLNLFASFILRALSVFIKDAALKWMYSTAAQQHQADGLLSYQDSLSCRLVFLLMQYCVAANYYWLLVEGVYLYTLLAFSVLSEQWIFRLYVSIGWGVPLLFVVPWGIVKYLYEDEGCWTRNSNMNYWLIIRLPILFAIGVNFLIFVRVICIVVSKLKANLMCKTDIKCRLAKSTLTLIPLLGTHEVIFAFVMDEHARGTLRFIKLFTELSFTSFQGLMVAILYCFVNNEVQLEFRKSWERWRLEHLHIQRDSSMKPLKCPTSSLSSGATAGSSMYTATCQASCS
Experimental: as §1, §2

GIPR [3] = biological target: T1, GIPR (Homo sapiens, UniProt P48546, Y36A); assay: cAMP accumulation assay (LANCE Ultra cAMP kit), GIPR WT, mutant or modified constructs; assay type: cell-based; design: acylated tirzepatide to the full-length or modified; Flag; expressed in transfected cells; host or cells: HEK293T; conditions: GIPR Y36A, HEK293T; for EC50: read-out: cAMP pEC50 (converted)
T1 sequence (P48546 22-466 Y36A): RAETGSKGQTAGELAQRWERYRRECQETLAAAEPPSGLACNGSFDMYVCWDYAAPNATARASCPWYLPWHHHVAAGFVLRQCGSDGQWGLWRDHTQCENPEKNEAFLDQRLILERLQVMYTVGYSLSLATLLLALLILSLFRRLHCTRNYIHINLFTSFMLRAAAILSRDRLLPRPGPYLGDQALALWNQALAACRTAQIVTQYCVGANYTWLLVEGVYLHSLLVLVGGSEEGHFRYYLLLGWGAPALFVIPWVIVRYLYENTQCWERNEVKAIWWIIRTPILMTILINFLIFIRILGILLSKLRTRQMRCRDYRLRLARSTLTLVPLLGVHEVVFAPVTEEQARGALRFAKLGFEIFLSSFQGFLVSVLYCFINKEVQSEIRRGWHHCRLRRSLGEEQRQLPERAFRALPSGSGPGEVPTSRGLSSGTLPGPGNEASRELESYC
Summary of the method: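 HEK293T cells transiently transfected with human GIPR WT or mutant constructs (pcDNA3.1), used after 24 h. The cells were stimulated with peptide agonists for 40 min at RT in HBSS with 5 mM HEPES, 0.1% BSA or casein, and 0.5 mM IBMX. cAMP was read by LANCE Ultra TR-FRET (Eu-cAMP tracer/ULight anti-cAMP, 1 h RT, 620/650 nm).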

GIPR [4] = biological target: T2, GIPR (Homo sapiens, UniProt P48546, T345F); assay: Whole-cell binding assay, competition with 125I-GIP1-42; design: acylated tirzepatide to the full-length or modified; Flag; expressed in transfected cells; conditions: GIPR T345F; CHO-K1; read-out: binding pIC50 (converted)
T2 sequence (P48546 22-466 T345F): T1 sequence (P48546 22-466 Y36A) with A15Y, T324F
Experimental: as §1
For GIPR, CHO-K1 cells were cultured in F-12 medium with 10% FBS and seeded at a density of 30,000 cells/well in Isoplate-96 plates (PerkinElmer). The WT or mutant GIPR was transiently transfected using Lipofectamine 2000 transfection reagent as previous described. They were then washed twice using F-12 with 0.1% BSA or 0.1% casein, 33 mM HEPES, and incubated for 2 h at 37 °C. […] Following incubation, cells were washed three times with ice-cold PBS and lysed by addition of 50 μL lysis buffer (PBS supplemented with 20 mM Tris-HCl, 1% Triton X-100, pH 7.4). Fifty µL of scintillation cocktail (OptiPhase SuperMix, PerkinElmer) were added and the plates were subsequently counted for radioactivity (counts per minute, CPM) in a MicroBeta^2 microplate counter (PerkinElmer).

[5] = read-out: binding pIC50 (converted)

Chain of GLP-1R (Homo sapiens, UniProt P43220, Y148A) (P43220 24-463 Y148A): as the sequence (P43220 24-463 W214A) above, with Y125A, A191W counted along it

Row | SMILES | binding Span (GLP-1R [1]) [% WT] | IC50 (GLP-1R [1]; [5]) [nM] | binding Span (GLP-1R [2]) [% WT] | IC50 (GLP-1R [2]; [5]) [nM] | EC50 (GIPR [3]) [nM] | Emax (GIPR [3]; HEK-293T) [%] | IC50 (GIPR [4]) [nM]
1 | CCCCCCCCCCCCCCCC(=O)N[C@@H](CCC(=O)NCCCC[C@H](NC(=O)[C@H](CC(=O)O)NC(=O)[C@H](CO)NC(=O)[C@@H](NC(=O)[C@H](Cc1ccccc1)NC(=O)[C@@H](NC(=O)CNC(=O)[C@H](CCC(N)=O)NC(=O)C(C)(C)NC(=O)[C@@H](N)Cc1c[nH]cn1)[C@@H](C)O)[C@@H](C)O)C(=O)N[C@@H](CO)C(=O)N[C@@H](CCCCN)C(=O)N[C@@H](Cc1ccc(O)cc1)C(=O)N[C@@H](CC(C)C)C(=O)N[C@@H](CC(=O)O)C(=O)N[C@@H](CCC(=O)O)C(=O)N[C@@H](CCCNC(=N)N)C(=O)N[C@@H](C)C(=O)N[C@@H](C)C(=O)N[C@@H](CCC(N)=O)C(=O)N[C@@H](CC(=O)O)C(=O)N[C@@H](Cc1ccccc1)C(=O)N[C@H](C(=O)N[C@@H](CCC(N)=O)C(=O)N[C@@H](Cc1c[nH]c2ccccc12)C(=O)N[C@@H](CC(C)C)C(=O)N[C@@H](CC(C)C)C(=O)N[C@@H](CC(=O)O)C(=O)NCC(=O)NCC(=O)N1CCC[C@H]1C(=O)N[C@@H](CO)C(=O)N[C@@H](CO)C(=O)NCC(=O)N[C@@H](C)C(=O)N1CCC[C@H]1C(=O)N1CCC[C@H]1C(=O)N1CCC[C@H]1C(=O)N[C@@H](CO)C(N)=O)C(C)C)C(=O)O [Peptide 20] | 8.73 ± 2.65 | 15.5 | 10.25 ± 1.71 | 17 | 0.0123 | 100 ± 1.62 | 24
2 | CC[C@H](C)[C@H](NC(=O)[C@H](CC(C)C)NC(=O)[C@H](Cc1c[nH]c2ccccc12)NC(=O)[C@H](CCC(N)=O)NC(=O)[C@@H](NC(=O)[C@H](Cc1ccccc1)NC(=O)[C@H](C)NC(=O)[C@H](CCCCNC(=O)COCCOCCNC(=O)COCCOCCNC(=O)CC[C@H](NC(=O)CCCCCCCCCCCCCCCCCCC(=O)O)C(=O)O)NC(=O)[C@H](CCC(N)=O)NC(=O)[C@H](C)NC(=O)[C@@H](NC(=O)[C@H](CCCCN)NC(=O)[C@H](CC(=O)O)NC(=O)[C@H](CC(C)C)NC(=O)C(C)(C)NC(=O)[C@@H](NC(=O)[C@H](CO)NC(=O)[C@H](Cc1ccc(O)cc1)NC(=O)[C@H](CC(=O)O)NC(=O)[C@H](CO)NC(=O)[C@@H](NC(=O)[C@H](Cc1ccccc1)NC(=O)[C@@H](NC(=O)CNC(=O)[C@H](CCC(=O)O)NC(=O)C(C)(C)NC(=O)[C@@H](N)Cc1ccc(O)cc1)[C@@H](C)O)[C@@H](C)O)[C@@H](C)CC)[C@@H](C)CC)C(C)C)C(=O)N[C@@H](C)C(=O)NCC(=O)NCC(=O)N1CCC[C@H]1C(=O)N[C@@H](CO)C(=O)N[C@@H](CO)C(=O)NCC(=O)N[C@@H](C)C(=O)N1CCC[C@H]1C(=O)N1CCC[C@H]1C(=O)N1CCC[C@H]1C(=O)N[C@@H](CO)C(N)=O [Tirzepatide] | 12.31 ± 2.51 |  | 11.88 ± 1.32 |  | 0.0589 |  | 129
